Columns and labels:
Assay type in all cases: biochemical
[1] = target: T1, PTK2B (Homo sapiens, UniProt Q14289); experiment: Kinase inhibitor profiling, autophosphorylation
T1 construct: specificity data for proteins generated from a library of eighteen full-length clones; host or cells: rabbit reticulocyte lysate, TnT coupled in vitro transcription/translation (cell-free)
Experimental: (§1) Proteins were produced from DNA plasmids of Mock Luciferase, Promega, tyrosine kinase clone Spleen Tyrosine kinase (SYK, IMAGE ID# 3870426) and Eph receptor-A7 (EphA7, IMAGE ID# 3991628) (Incyte Genomics, CA) and immobilized on streptavidin or avidin coated NPT-IPR plates as described in the Example 7. To promote autophosphorylation in these immobilized and purified proteins, Mn++ ions were added in a 50 μl reaction containing 5 mM MgCl2, 5 mM MnCl2, 100 μM ATP, 25 mM Tris-HCl buffer pH 7.4, 0.05 mM Na3VO4, 0.004% TritonX-100, 2 mM DTT and EDTA-free protease inhibitor (Roche Molecular Biochemicals). This mixture was incubated with shaking at room temperature overnight to allow autophosphorylation. Following this incubation, wells were washed 2 times with TT-buffer and 2 times with water. Following this step, 50 ng Sulfo-TAG labeled anti-phosphotyrosine in buffer containing 25 mM Tris-HCl buffer pH 7.4, 5 mM MgCl2, 0.05 mM Na3VO4, 0.004% TritonX-100, 2 mM DTT and 0.05% IgG in a final volume of 50 μl was added followed by incubation at room temperature for 45 min. The unbound reagents were removed by one time washing with water, and the TAG label was detected in presence of 150 μl IPR assay buffer (0.4 mM Gly—Gly buffer, pH 7.8, 1 mM EDTA, 0.1 M TPA). The ECL signals were measured using an imaging plate reader.
(§2) Proteins were produced using 100 ng of plasmid DNA Mock (Luciferase, Promega) or tyrosine kinases (Fert2 IMAGE ID # 4485050, FGFR1 IMAGE ID # 4037899, Fgfr2 IMAGE ID # 2654352, Src IMAGE ID # 3156400, BMX IMAGE ID # 3919253, LCK IMAGE ID # 4191610, Epha7 IMAGE ID # 3991628, Ephb4 IMAGE ID # 4013934, Tek IMAGE ID # 3482498, HCK IMAGE ID # 4778819, BTK IMAGE ID # 4478463, CSK IMAGE ID # 4398416, SYK IMAGE ID # 3870426, FGR IMAGE ID # 4419973, PTK2B IMAGE ID # 4339456, FRK(IMAGE ID # 4515877, Kit IMAGE ID # 2644960, Fgfr-4 IMAGE ID # 4239139, NTRK3 IMAGE ID # 4181574, Kdr IMAGE ID # 4238984, Incyte Genomics, CA) and immobilized on SA or avidin coated NPT-IPR plates as described in previous examples. The unbound components of the translation reaction (including any endogenous kinases) were removed by 3 washes with TT-buffer (25 mM Tris-HCl buffer pH 7.4 and 0.004% Triton), two five minutes washes with high-salt wash buffer (25 mM Tris-HCl buffer pH 7.4, 0.004% Triton, 1M NaCl and 5 mM DTT) and 3 washes with TT-buffer. […] The mixture was incubated at room temperature for 10 mm before starting the kinase reaction by adding 25 μl of 200 μM ATP in buffer A. This mixture was incubated with intermittent shaking at room temperature for 2 hours to overnight to allow (a) phosphorylation of the pEY substrate and (b) autophosphorylation of the immobilized kinases. Autophosphorylation and phosphorylation of the pEY was measured as described in Examples 7 and 8.
(§3) The ECL signal in control wells produced by tyrosine kinases was compared to the wells containing inhibitor compounds. The signal produced from Mock was negligible.

[2] = system: FRK; experiment: Kinase inhibitor profiling, autophosphorylation
Experimental: as §1, §2, §3

[3] = target: T2, Kdr (Mus musculus, UniProt P35918); experiment: Kinase inhibitor profiling, pEY phosphorylation
T2 construct: specificity data for proteins generated from a library of eighteen full-length clones; biotin on random lysines (biotin-Lys-tRNA); host or cells: rabbit reticulocyte lysate, coupled transcription/translation (TnT, Promega)
T2 sequence (P35918 20-1345): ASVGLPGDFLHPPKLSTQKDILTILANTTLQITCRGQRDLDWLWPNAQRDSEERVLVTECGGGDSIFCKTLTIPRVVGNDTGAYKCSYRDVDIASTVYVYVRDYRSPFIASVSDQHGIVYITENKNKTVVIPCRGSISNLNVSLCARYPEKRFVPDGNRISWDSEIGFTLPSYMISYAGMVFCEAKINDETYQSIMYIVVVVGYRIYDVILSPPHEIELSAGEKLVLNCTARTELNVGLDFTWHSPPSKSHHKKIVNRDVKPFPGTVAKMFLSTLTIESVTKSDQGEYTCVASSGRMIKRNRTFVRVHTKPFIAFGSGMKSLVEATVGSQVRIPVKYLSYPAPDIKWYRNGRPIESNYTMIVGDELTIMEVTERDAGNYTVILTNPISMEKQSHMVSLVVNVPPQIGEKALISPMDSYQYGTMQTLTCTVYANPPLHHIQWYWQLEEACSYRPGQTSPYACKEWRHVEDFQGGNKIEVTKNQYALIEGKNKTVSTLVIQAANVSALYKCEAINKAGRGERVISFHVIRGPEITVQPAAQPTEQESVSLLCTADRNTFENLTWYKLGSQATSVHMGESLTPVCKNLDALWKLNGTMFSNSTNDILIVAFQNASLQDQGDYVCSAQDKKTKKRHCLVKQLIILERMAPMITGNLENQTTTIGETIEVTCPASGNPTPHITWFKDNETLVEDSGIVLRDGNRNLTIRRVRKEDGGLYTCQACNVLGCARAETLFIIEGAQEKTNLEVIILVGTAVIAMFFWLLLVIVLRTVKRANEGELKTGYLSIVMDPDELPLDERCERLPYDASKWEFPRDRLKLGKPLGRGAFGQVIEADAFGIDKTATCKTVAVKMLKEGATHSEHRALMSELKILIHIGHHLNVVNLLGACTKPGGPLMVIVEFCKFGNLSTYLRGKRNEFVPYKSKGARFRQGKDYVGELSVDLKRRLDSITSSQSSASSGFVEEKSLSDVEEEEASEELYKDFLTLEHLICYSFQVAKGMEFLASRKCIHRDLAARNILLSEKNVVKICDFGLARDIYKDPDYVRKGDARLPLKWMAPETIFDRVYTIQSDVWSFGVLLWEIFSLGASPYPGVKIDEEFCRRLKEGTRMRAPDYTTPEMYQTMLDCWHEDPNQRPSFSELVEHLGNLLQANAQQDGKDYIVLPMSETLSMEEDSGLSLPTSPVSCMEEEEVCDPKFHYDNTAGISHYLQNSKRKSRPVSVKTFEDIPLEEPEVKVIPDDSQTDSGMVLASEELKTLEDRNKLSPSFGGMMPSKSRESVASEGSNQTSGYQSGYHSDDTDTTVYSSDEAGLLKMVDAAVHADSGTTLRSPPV
Experimental: Proteins were produced in an in vitro transcription and translation reaction. […] The unbound components of the reaction containing endogenous kinases were removed by three washes with TT-buffer (25 mM Tris-HCl buffer pH 7.4 and 0.004% Triton), two five minutes washings with high-salt wash buffer (25 mM Tris-HCl buffer pH 7.4, 0.004% Triton, 1M NaCl and 5 mM DTT) and 3 more washes with TT-buffer. To these immobilized and purified proteins a tyrosine kinase substrate, 5 nM pEY (poly Glu-Tyr, Sigma, MO), was added in a 50 μl reaction solution containing 5 mM MgCl2, 5 mM MnCl2, 100 μM ATP, 25 mM Tris-HCl buffer pH 7.4, 0.05 mM Na3VO4, 0.004% TritonX-100, 2 mM DTT and EDTA-free protease inhibitor (Roche Molecular Biochemicals). This mixture was incubated with shaking at room temperature overnight to allow phosphorylation of the pEY substrate by the immobilized kinases. Following this incubation, 45 μl of this mixture was transferred to a streptavidin or avidin-coated NPT IPR plate coated with biotinylated anti-phosphotyrosine antibody (PY20, Zymed labs, CA) followed by incubation for 30 minutes at room temperature to allow the binding of the phosphorylated pEY substrate to the PY20 coated NPT plate. Following this binding step, 50 ng Sulfo-TAG labeled anti-phosphotyrosine in buffer containing 25 mM Tris-HCl buffer pH 7.4, 5 mM MgCl2, 0.05 mM Na3VO4, 0.004% TritonX-100, 2 mM DTT and 0.05% IgG was added followed by incubation at room temperature for 30 mm. The unbound reagents were removed by one time washing with water, and the TAG label was detected in presence of 150 μl IPR assay buffer (0.4 mM Gly-Gly buffer, pH 7.8, 1 mM EDTA, 0.1 M TPA). The ECL signals were measured using an imaging plate reader.
The unbound components of the translation reaction (including any endogenous kinases) were removed by 3 washes with TT-buffer (25 mM Tris-HCl buffer pH 7.4 and 0.004% Triton), two five minutes washes with high-salt wash buffer (25 mM Tris-HCl buffer pH 7.4, 0.004% Triton, 1M NaCl and 5 mM DTT) and 3 washes with TT-buffer. […] The mixture was incubated at room temperature for 10 mm before starting the kinase reaction by adding 25 μl of 200 μM ATP in buffer A. This mixture was incubated with intermittent shaking at room temperature for 2 hours to overnight to allow (a) phosphorylation of the pEY substrate and (b) autophosphorylation of the immobilized kinases. Autophosphorylation and phosphorylation of the pEY was measured as described in Examples 7 and 8.
The ECL signal in control wells produced by tyrosine kinases was compared to the wells containing inhibitor compounds.

[4] = target: T3, Fert2 (Mus musculus, UniProt P70451); experiment: Kinase inhibitor profiling, autophosphorylation
T3 construct: specificity data for proteins generated from a library of eighteen full-length clones; host or cells: rabbit reticulocyte lysate, TnT coupled transcription/translation
T3 sequence (P70451 whole entry): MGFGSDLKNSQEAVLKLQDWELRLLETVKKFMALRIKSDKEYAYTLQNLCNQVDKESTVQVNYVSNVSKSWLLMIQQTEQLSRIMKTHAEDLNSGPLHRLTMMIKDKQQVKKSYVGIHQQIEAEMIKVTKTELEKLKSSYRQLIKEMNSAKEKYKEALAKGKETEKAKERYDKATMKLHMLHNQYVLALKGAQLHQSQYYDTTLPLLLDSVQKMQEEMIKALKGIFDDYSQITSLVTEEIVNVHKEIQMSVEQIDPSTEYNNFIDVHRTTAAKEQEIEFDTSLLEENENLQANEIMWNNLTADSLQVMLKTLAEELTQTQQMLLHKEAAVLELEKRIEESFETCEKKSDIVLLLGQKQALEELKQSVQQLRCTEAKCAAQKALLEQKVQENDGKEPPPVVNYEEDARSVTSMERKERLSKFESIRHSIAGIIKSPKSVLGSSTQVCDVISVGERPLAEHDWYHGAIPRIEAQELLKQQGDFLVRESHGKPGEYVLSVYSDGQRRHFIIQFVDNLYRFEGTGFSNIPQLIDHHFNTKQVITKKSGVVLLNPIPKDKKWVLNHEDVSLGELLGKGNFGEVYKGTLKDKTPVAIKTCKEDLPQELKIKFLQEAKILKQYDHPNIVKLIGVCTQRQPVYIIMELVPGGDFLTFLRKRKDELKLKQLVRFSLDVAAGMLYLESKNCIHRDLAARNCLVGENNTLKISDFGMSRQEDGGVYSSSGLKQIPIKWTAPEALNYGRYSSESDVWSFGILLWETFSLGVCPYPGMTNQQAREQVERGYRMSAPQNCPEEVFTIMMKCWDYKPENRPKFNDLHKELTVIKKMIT
Experimental: as §1, §2, §3

T1 sequence (Q14289 whole entry): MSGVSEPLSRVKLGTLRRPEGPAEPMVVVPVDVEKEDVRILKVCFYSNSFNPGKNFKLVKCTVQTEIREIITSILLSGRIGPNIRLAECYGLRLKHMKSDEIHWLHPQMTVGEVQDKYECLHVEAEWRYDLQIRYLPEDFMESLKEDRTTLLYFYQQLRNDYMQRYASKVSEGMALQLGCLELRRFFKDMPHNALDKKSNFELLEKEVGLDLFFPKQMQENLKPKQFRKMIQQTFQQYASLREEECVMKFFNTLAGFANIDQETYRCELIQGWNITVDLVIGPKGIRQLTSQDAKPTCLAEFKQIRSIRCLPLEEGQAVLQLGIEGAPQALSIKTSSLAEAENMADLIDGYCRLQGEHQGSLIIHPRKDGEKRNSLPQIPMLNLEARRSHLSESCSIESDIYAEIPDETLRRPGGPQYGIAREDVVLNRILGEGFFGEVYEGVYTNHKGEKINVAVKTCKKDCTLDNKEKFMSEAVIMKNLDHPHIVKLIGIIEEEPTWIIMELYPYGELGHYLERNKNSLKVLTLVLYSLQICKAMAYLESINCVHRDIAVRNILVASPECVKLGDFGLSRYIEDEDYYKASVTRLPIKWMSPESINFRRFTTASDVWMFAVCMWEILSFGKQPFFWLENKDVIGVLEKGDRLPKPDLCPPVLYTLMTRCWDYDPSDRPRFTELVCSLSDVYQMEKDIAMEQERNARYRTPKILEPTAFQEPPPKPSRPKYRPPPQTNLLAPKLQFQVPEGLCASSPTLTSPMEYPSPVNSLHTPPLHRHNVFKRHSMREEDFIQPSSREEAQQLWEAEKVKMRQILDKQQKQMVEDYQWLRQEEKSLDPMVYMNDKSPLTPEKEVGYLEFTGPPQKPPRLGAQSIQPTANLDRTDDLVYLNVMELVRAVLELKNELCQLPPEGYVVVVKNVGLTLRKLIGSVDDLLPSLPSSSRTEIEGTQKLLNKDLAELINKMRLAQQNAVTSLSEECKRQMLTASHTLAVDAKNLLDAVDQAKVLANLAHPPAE

Compound | Inhibition specificity towards Autophosphorylation at 10X IC50, PTK2B [1] | Inhibition specificity towards Autophosphorylation at 10X IC50, FRK [2] | Inhibition specificity towards pEY phosphorylation at 10X IC50, Kdr [3] | Inhibition specificity towards Autophosphorylation at 10X IC50, Fert2 [4]
COC(=O)c1ccc(NCc2cc(O)ccc2O)cc1 [AG-957] | L (low inhibition (“L”=between 50–75% of the activity remaining)) | L (low inhibition (“L”=between 50–75% of the activity remaining)) | – | –
CC(C)(C)c1cc(C=C(C#N)C#N)cc(Br)c1O [AG-1024] | – | – | M (medium inhibition (“M”=between 25 to 50% of the activity remaining)) | –
Cc1cc2ncc(-c3ccc(O)c(O)c3)nc2cc1C [AG-1433] | H (high inhibition (“H”=less than 25% of the activity remaining)) | H (high inhibition (“H”=less than 25% of the activity remaining)) | H (high inhibition (“H”=less than 25% of the activity remaining)) | H (high inhibition (“H”=less than 25% of the activity remaining))
COc1c(C=O)c(O)cc2c1C(=O)c1ccccc1C2=O [Damnacanthal] | M (medium inhibition (“M”=between 25 to 50% of the activity remaining)) | H (high inhibition (“H”=less than 25% of the activity remaining)) | H (high inhibition (“H”=less than 25% of the activity remaining)) | L (low inhibition (“L”=between 50–75% of the activity remaining))
Cc1ccc(-c2nn(C(C)(C)C)c3ncnc(N)c23)cc1 [PP1] | – | – | M (medium inhibition (“M”=between 25 to 50% of the activity remaining)) | –
COc1cc2ncnc(Nc3ccc(Cl)cc3F)c2cc1OC [VEGFR inhibitor] | – | – | H (high inhibition (“H”=less than 25% of the activity remaining)) | –
COc1cc2ncnc(Nc3ccc(O)cc3)c2cc1OC [WHI-P131] | – | – | H (high inhibition (“H”=less than 25% of the activity remaining)) | –
Erbstatin analog | L (low inhibition (“L”=between 50–75% of the activity remaining)) | – | – | L (low inhibition (“L”=between 50–75% of the activity remaining))

From patent US7063946B2, “Methods, reagents, kits and apparatus for protein function analysis” (Meso Scale Technologies, LLC., priority 2001, dated 2006)
